As usually defined, the IC50 is the concentration that gives 50% inhibition.

Among the data in patent US20240343720A1, “AAK1 INHIBITOR AND USE THEREOF” (Xizang Haisco Pharmaceutical Co., Ltd., priority 2021, published 2024) are IC50 values, retold here.

The target in this assay is AAK1 (Homo sapiens (Human), UniProt Q2M2I8). Nature of the assay: In vitro AAK1 enzyme activity assay (ADP-Glo). The class given is biochemical. Conditions: read-out: Inhibitory activity against AAK1 IC50. How it is done: Compound stock solution (concentration: 10 mM, dissolved in DMSO) was diluted with DMSO to 0.2 mM and then diluted with DMSO in 5-fold gradient to obtain compound solutions with 10 concentrations. Subsequently, the compound solutions with different concentrations were diluted 50-fold in 1×kinase reaction buffer (containing 40 mM Tris, 20 mM MgCl2, 0.1% BSA and 0.5 mM DTT) for later use. AAK1 (Signalchem, Cat #A01-11G-10) was diluted with 1×kinase reaction buffer to 2-fold the final concentration (final concentrations: 30 nM and 28 nM). AAK1 was added to a 384-well white plate at 2 μL/well, and the compounds were then added at 1 μL/well. The plate was sealed with a plate-sealing film, centrifuged at 1000 rpm for 30 seconds and then placed at room temperature for 10 minutes. A mixed solution of ATP (Promega, Cat #V914B) and substrate Micro2 (GenScript, Cat #PE0890) was formulated at 4-fold the final concentration (for AAK1, the corresponding final concentrations of ATP: 15 μM and 5 μM, and the corresponding final concentration of Micro2: 0.1 mg/mL). To the reaction plate was added the mixed solution of ATP and the substrate at 1 μL/well. The plate was sealed with a plate-sealing film and centrifuged at 1000 rpm for 30 seconds. The reaction was carried out at room temperature for 60 minutes (AAK1). ADP-Glo (Promega, Cat #V9102) was transferred to the 384-well plate at 4 μL/well and centrifugation was carried out at 1000 rpm for 1 minute. The mixture was incubated at 25° C. for 40 minutes. A detection solution was transferred to the 384-well plate at 8 μL/well and centrifugation was carried out at 1000 rpm for 1 minute. The resulting mixture was incubated at 25° C. for 40 minutes. The RLU (Relative luminescence unit) signal values were read using a Biotek multilable microplate reader and the percent inhibition was calculated according to the following formula: [1−(LUMcompound−LUMpositive control)/(LUMnegative control−LUMpositive control)]×100. IC50 values were calculated using Graphpad 7.0 software using a four-parameter non-linear fit equation.
Sequence of AAK1 (Q2M2I8 27-365): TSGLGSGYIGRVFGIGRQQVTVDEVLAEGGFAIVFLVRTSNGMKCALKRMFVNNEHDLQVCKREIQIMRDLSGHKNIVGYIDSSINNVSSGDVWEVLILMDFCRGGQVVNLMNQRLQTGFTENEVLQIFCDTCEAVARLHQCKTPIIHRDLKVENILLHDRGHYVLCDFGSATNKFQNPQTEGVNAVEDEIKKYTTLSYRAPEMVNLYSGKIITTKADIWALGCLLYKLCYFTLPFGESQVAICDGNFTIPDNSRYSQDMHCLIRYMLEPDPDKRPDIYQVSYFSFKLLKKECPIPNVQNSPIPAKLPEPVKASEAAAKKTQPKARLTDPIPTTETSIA
(In general: ADP-Glo first removes unused ATP, then detects ADP through luciferase.)
Regarding `CC(C)(F)CC(C)(N)COc1ccc(-c2ccnc(C(F)F)c2)nc1C(F)F` (stereo not drawn) [Compound 1, 1-((2′,6-bis(difluoromethyl)-[2,4′-bipyridin]-5-yl)oxy)-4-fluoro-2,4-dimethylpentan-2-amine], the 50% inhibitory concentration (IC50) was determined as 14.7 nM.

On to `CC(N)(COc1ccc(-c2ccnc(C(F)F)c2)nc1C(F)F)CC1(C)CC1` (stereo not drawn) [Compound 2, 1-((2′,6-bis(difluoromethyl)-[2,4′-bipyridin]-5-yl)oxy)-2-methyl-3-(1-methylcyclopropyl) propan-2-amine], for which the IC50 was 9.29 nM.

In the case of `C=C(C)C[C@](C)(N)COc1ccc(-c2ccnc(NC(C)=O)c2)cc1C#N` [Compound 5, (S)-N-(4-(4-((2-amino-2,4-dimethylpent-4-en-1-yl)oxy)-3-cyanophenyl)pyridin-2-yl)acetamide], the half-maximal inhibitory concentration (IC50) was found to be 6.37 nM.

As to `CC(=O)Nc1cc(-c2ccc(OC[C@@](C)(N)CC(C)(C)F)c(C#N)c2)ccn1` [Compound 6, (S)-N-(4-(4-((2-amino-4-fluoro-2,4-dimethylpentyl)oxy)-3-cyanophenyl)pyridin-2-yl)acetamide], the concentration for half-maximal inhibition (IC50) came out at 11 nM.

As to `C=C(C)C[C@](C)(N)COc1cnc(-c2ccnc(NC(=O)OC)c2)cc1C(F)(F)F` [Compound 7, Methyl-(S)-(5-((2-amino-2,4-dimethylpent-4-en-1-yl)oxy)-4-(trifluoromethyl) [2,4′-bipyridin]-2′-yl)carbamate], the concentration for half-maximal inhibition (IC50) came to 13.8 nM.

On to `C=C(C)C[C@](C)(N)COc1ccc(-c2ccnc(NC(=O)OC)c2)nc1C` [Compound 10, Methyl (S)-(5-((2-amino-2,4-dimethylpent-4-en-1-yl)oxy)-6-methyl-[2,4′-bipyridin]-2′-yl)carbamate], for which the IC50 came to 11.5 nM.

As for `C=C(C)C[C@](C)(N)COc1ccc(-c2ccnc(NC(C)=O)c2)nc1C(F)F` [Compound 15, (S)-N-(5-((2-amino-2,4-dimethylpent-4-en-1-yl)oxy)-6-(difluoromethyl)-[2,4′-bipyridin]-2′-yl)acetamide], the IC50 turned out to be 19.8 nM.

As for `CC(=O)Nc1cc(-c2ccc(OC[C@@](C)(N)CC(C)(C)F)c(C(F)F)n2)ccn1` [Compound 16, (S)-N-(5-((2-amino-4-fluoro-2,4-dimethylpentyl)oxy)-6-(difluoromethyl)-[2,4′-bipyridin]-2′-yl)acetamide], the IC50 is 22.3 nM.

As to `C=C(C)C[C@](C)(N)COc1ncc(-c2ccnc(NC(=O)OC)c2)cc1C(F)F` [Compound 17, (S)-methyl-(6-((2-amino-2,4-dimethylpent-4-en-1-yl)oxy)-5-(difluoromethyl)-[3,4′-bipyridin]-2′-yl)carbamate], the IC50 is 26.8 nM.

Consider `COC(=O)Nc1cc(-c2cnc(OC[C@@](C)(N)CC(C)(C)F)c(C(F)F)c2)ccn1` [Compound 18, (S)-methyl-(6-((2-amino-4-fluoro-2,4-dimethylpentyl)oxy)-5-(difluoromethyl)-[3,4′-bipyridin]-2′-yl)carbamate], for which the 50% inhibitory concentration (IC50) turned out to be 9.55 nM.

Take `COC(=O)Nc1cc(-c2cc(C(F)F)c(OC[C@@](C)(N)CC(C)(C)F)cn2)ccn1` [Compound 20, Methyl (S)-(5-((2-amino-4-fluoro-2,4-dimethylpentyl)oxy)-4-(difluoromethyl)-[2,4′-bipyridin]-2′-yl)carbamate]: the half-maximal inhibitory concentration (IC50) was 16.1 nM.

Consider `NC1(COc2ccc(-c3ccnc(C(F)F)c3)nc2C(F)F)CCCC1` [Compound 22, 1-(((2′,6-bis(difluoromethyl)-[2,4′-bipyridin]-5-yl)oxy)methyl)cyclopentan-1-amine], for which the IC50 came out at 32.1 nM.

On to `C=C(C)C[C@](C)(N)COc1ccc(-c2ccnc(NC(C)=O)c2)cc1C(N)=O` [Compound 23, (S)-5-(2-acetamidopyridin-4-yl)-2-((2-amino-2,4-dimethylpent-4-en-1-yl)oxy)benzamide], for which the IC50 came to 38.6 nM.

As to `C=C(C)C[C@](C)(N)COc1ccc(-c2ccnc(NC(=O)C3CC(F)(F)C3)c2)cc1C#N` [Compound 24, (S)-N-(4-(4-((2-amino-2,4-dimethylpent-4-en-1-yl)oxy)-3-cyanophenyl)pyridin-2-yl)-3,3-difluorocyclobutane-1-carboxamide], the half-inhibitory concentration (IC50) amounted to 22.5 nM.

`C=C(C)C[C@](C)(N)COc1ccc(-c2ccnc(NC(=O)[C@H]3C[C@H]3F)c2)cc1C#N` [Compound 25, (1R,2R)-N-(4-(4-(((S)-2-amino-2,4-dimethylpent-4-en-1-yl)oxy)-3-cyanophenyl)pyridin-2-yl)-2-fluorocyclopropane-1-carboxamide]: the IC50 turned out to be 11.9 nM.

For the compound `C[C@@](N)(COc1ccc(-c2ccnc(C(F)F)c2)nc1C(F)F)CC1CC1` [Compound 26, (S)-1-((2′,6-bis(difluoromethyl)-[2,4′-bipyridin]-5-yl)oxy)-3-cyclopropyl-2-methylpropan-2-amine], the IC50 was 11 nM.

In the case of `COC(=O)Nc1cc(-c2cc(C(F)(F)F)c(OCC(C)(N)C=C(C)C)cn2)ccn1` (stereo not drawn) [Compound 27, Methyl (5-((2-amino-2,4-dimethylpent-3-en-1-yl)oxy)-4-(trifluoromethyl)-[2,4′-bipyridin]-2′-yl)carbamate], the IC50 came to 43.1 nM.

For `CC(=O)Nc1cc(-c2ccc(OC[C@@](C)(N)CC(C)(O)CO)c(C#N)c2)ccn1` (stereo partly drawn) [Compound 28, N-(4-(4-(((2S)-2-amino-4,5-dihydroxy-2,4-dimethylpentyl)oxy)-3-cyanophenyl)pyridin-2-yl)acetamide], the IC50 was determined as 5.96 nM.

Consider `C=C(C)C[C@](C)(N)COc1ccc(-c2ccnc(NC(=O)[C@H]3CC3(F)F)c2)cc1C#N` [Compound 29, (1R)-N-(4-(4-{[(2S)-2-amino-2,4-dimethylpent-4-en-1-yl]oxy}-3-cyanophenyl)pyridin-2-yl)-2,2-difluorocyclopropane-1-carboxamide], for which the concentration for half-maximal inhibition (IC50) was found to be 11 nM.

Turning to `C=C(C)C[C@](C)(N)COc1ccc(-c2ccnc(NC(=O)[C@@H]3CC3(F)F)c2)cc1C#N` [Compound 30, (1S)-N-(4-(4-{[(2S)-2-amino-2,4-dimethylpent-4-en-1-yl]oxy}-3-cyanophenyl)pyridin-2-yl)-2,2-difluorocyclopropane-1-carboxamide], the IC50 was found to be 9.08 nM.

Take `COC(=O)Nc1cc(-c2ccc(OC[C@@](C)(N)CC3CC3)c(C(F)F)n2)ccn1` [Compound 31, Methyl (S)-(5-(2-amino-3-cyclopropyl-2-methylpropoxy)-6-(difluoromethyl)-[2,4′-bipyridin]-2′-yl)carbamate]: the IC50 was 10.9 nM.
